Patent publication US20110224133A1 (University of Southern California, priority 2008, published 2011)
“Also recorded” adds a separate entry of the source. Ends that are not written are not given here. Peptide text beside a SMILES is read from it. * marks the point of attachment. Cbz = O=C(OCc1ccccc1)*; CH2F = FC*

Experiments:
[1] = system: Beclin1; assay: Beclin1 siRNA knockdown in BCBL1 cells; format: cell-based, human
From the text: For panel B, BCBL1 cells were transfected with control siRNA or Beclin1 siRNA and treated with or without rapamycin for 5 days.

[2] = system: KSHV-infected BCBL1 cells; assay: Rapamycin-induced growth suppression and death of BCBL1 cells (cell counts, scanning EM); format: cell-based, human; conditions: 6 days, over 100 dead cells examined
Method: The effect of vFLIP on autophagy was tested in a KSHV-infected BCBL1 cell line.

[3] = system: BCBL1 cells; conditions: 50 μM zVAD
Method: For panels B-C, TREX-BCBL-Vector and TREX-BCBL-vFLIP cells were mock-treated or treated with 50 μM zVAD (B) or 50 nM rapamycin (C) for indicated amounts of time (days). A BC Z2 CS Analyzer was used to determine the cell numbers (left) and cell death levels (as a percentage) at day 6 (right).
Trypan blue staining and a Beckman Coulter Z2 Particle Count and Size analyzer were used to determine cell death (as a percentage) at day 5.

[4] = molecular target: T1, Atg3 (Homo sapiens, UniProt Q9NT62); assay: Co-immunoprecipitation and GST pulldown with Atg3 in HEK293T cells; format: binding; conditions: HEK293T cells, 48 hr post-transfection
T1 construct: expressed in transfected cells; host or cells: HEK293T
From the text: (§1) For panel A, at 48 hr post-transfection with Flag-vFLIP and/or GFP-Atg3 (left) or Flag-vFLIP and/or GST-Atg3 (middle), HEK293T cells were used for immunoprecipitation with αFlag, αGFP, or GST pulldown, followed by immunoblotting with the indicated antibodies. For panel A (right), HEK293T cells transfected with FIag-vFLIP were used for immunoprecipitation with mouse IgG or αFlag, followed by immunoblotting with αAtg3. Panel B (top) depicts a schematic diagram of human Atg3. N,N-terminus; FR, flexible region; C, C-terminus. […] Panel C (top) depicts a schematic diagram of KSHV vFLIP. […] For panel F, NIH3T3-Vector and NIH3T3-vFLIP cells were treated with 2 nM rapamycin for 12 hr and used for IP with αAtg3, followed by immunoblotting with αLC3. In panels A-F, whole cell lysates (WCLs) were used for immunoblotting with the indicated antibodies to show expression.
(§2) WCLs were used for immunoblotting with αFlag or αGST. […] WCLs were used for immunoblotting with αFlag or αGST.
(§3) The ability of FLIP to bind to Atg3 was evaluated by co-immunoprecipitation assay. HEK293T cells were transfected with Flag-vFLIP and/or GFP-Atg3 or Flag-vFLIP and/or GST-Atg3, and at 48 hr post-transfection, cells were harvested and lysed in an NP40 buffer supplemented with complete protease inhibitor cocktail (Roche). After pre-clearing with protein A/G agarose beads for 1 hr at 4° C., whole-cell lysates were used for immunoprecipitation with αFlag, αGFP, or GST. Generally, 1-4 μg of the antibody was added to 1 ml of the cell lysate and incubated at 4° C. for 8 to 12 hr. The immunoprecipitates were then washed extensively with a lysis buffer and eluted by boiling them with an SDS loading buffer for 5 min. Following immunoprecipitation, samples were treated to immunoblot using αAtg3 (1:500) (Novus).
(§4) The overall structure of yeast Atg3 has a unique hammer-like shape with the N-terminal and C-terminal regions discretely responsible for Atg7 and Atg8 (equivalent to mammalian LC3) binding, respectively. (Yamada et al. (2007) J. Biol. Chem. 282:8036-8043). Based on the structure of yeast Atg3, human Atg3 deletion mutants fused with a GST mammalian expression vector were constructed: GST-Atg31-93, GST-Atg3193-268, GST-Atg3268-315, and GST-Atg3193-315.

[5] = system: TREX-BCBL-Vector cells; assay: GFP-LC3 puncta autophagy assay in peptide-treated TREX-BCBL cells; conditions: 30 or 50 μM peptide, 12 hr, 2 μM rapamycin as comparison
[6] = system: TREX-BCBL-Vector cells; assay: Cell death (BC Z2 CS analyzer) in peptide-treated TREX-BCBL cells; conditions: identical conditions, 30 or 50 μM peptide
Method: Subsequently, autophagy was quantified as means (±SD) of the combined results from three independent experiments. 2 μM rapamycin treatment was included as a control. For panels B (right), TREX-BCBL-Vector and TREX-BCBL-vFLIP cells were treated with Doxycycline for 24 hr, followed by incubation with 0, 30, or 50 μM of TAT only, the K-α2, or the K-α4 peptide (top), or TAT only, the C-α2, or the C-α4 peptide (bottom) for an additional 12 hr and a BC Z2 CS analyzer used to determine cell death (as a percentage). […] For panel G, various human lymphoma cells were treated with 0, 30, or 50 μM of the K-α2 peptide (left) or the K-α4 peptide (right) for 12 hr and cell death (as a percentage) was determined using a BC Z2 CS Analyzer. For panel H, KSHV-infected BCBL1 cells were incubated with various combinations of rapamycin (25 nM), the K-α2 peptide (20 μM), and the K-α4 peptide (20 μM). A BC Z2 CS Analyzer was used to determine cell numbers (left) and cell death at 6 days (right).
Cells treated with 2 μM rapamycin treatment were included as controls. For panel C, KSHV-infected BCBL1 cells were treated with TAT only, K-α2, K-α2m, K-α4, or K-α4m (30 or 50 μM) for 24 hr. A BC Z2 CS Analyzer was used to determine cell death (as a percentage).

[7] = system: LC3-II; assay: Immunoblotting with αLC3 of peptide-treated BCBL1 cells; conditions: 30 μM each, 12 hr
Method: For panel E, TREX-BCBL-Vector and TREX-BCBL-vFLIP cells were treated with the K-α and the K-α4 (30 μM each) peptide for 12 hr, followed by immunoblotting with αLC3 and αactin.
The K-α2 and K-α4 peptides contained KSHV vFLIP aa20-29 and aa128-139 regions, respectively, as retro-inverso versions to circumvent the proteolytic degradation (FIG. 10 and FIG. 11A). […] Peptide-treated TREX-BCBL-Vector and TREX-BCBL-vFLIP cells were subjected to immunoblotting with αLC3 and αactin.

[8] = system: mTor kinase activity; assay: Immunoblot of p70S6K and S6 phosphorylation in BCBL1 cells; format: cell-based, human; conditions: 12 hr, 2 μM rapamycin or 30 μM peptide
Method: WCLs were used for immunoblotting with αp70S6K, αphospho-specific p70S6K, αphospho-specific S6, or αactin. […] WCLs were used for immunoblotting with αFlag or αGST.
Levels of phosphorylation of p70S6K and ribosomal protein S6 in BCBL1 cells were evaluated by immunoblotting with α-p70S6K, αphospho-specific p70S6K, αphospho-specific S6, or αactin.

[9] = molecular target: T2, GST-Atg3 (human Atg3, full length) (human, UniProt Q9NT62 1-314); assay: GST pulldown from HEK293T cells, immunoblot αFlag
T2 construct: also called GST-tagged hATG3; full-length Atg3; not shown: N-terminal GST tag

[10] = molecular target: T3, GST-Atg3 193-315 (C-terminal region) (human, UniProt Q9NT62 193-314); assay: GST pulldown with GST-Atg3, Nt and Ct, immunoblot αFlag
T3 construct: range 193-315; also called GST-Atg3 C-terminal region (Ct); not shown: N-terminal GST tag

[11] = system: Atg3; assay: Co-immunoprecipitation and GST pulldown with Atg3 in HEK293T cells; format: binding, human; conditions: GST-Atg3 deletion mutants, GST pulldown
From the text: as §1, §2, §3, §4

[12] = system: LC3-II; assay: Anti-LC3 immunoblotting of starved NIH3T3 cells expressing FLIP; format: cell-based, murine; conditions: starvation, Hank's solution 4 hr
Method: The arrows indicate autophagosomes.
During autophagy, an LC3 precursor (LC3-I) undergoes cleavage and lipidation to yield its processed form (LC3-II) (Mizushima et al. (2008) Nature 451:1069-1075). Immunoblotting was performed with an antibody against LC3 to further measure autophagic activity. […] Polypeptides were resolved by SDS-polyacrylamide gel electrophoresis (PAGE) and transferred to a PVDF membrane (Bio-Rad). […] The proteins were visualized by a chemiluminescence reagent (Pierce) and detected by a Fuji Phosphor Imager. […] Finally, the ability of FLIP to block autophagy in multiple cell types was evaluated.

[13] = system: NIH3T3 cells; assay: GFP-LC3 autophagy assay in NIH3T3 cells expressing FLIP; format: cell-based, murine; conditions: ectopic expression in NIH3T3 cells; Hank's solution 4 hr or 2 μM rapamycin 3 hr

T2 sequence (Q9NT62 whole entry): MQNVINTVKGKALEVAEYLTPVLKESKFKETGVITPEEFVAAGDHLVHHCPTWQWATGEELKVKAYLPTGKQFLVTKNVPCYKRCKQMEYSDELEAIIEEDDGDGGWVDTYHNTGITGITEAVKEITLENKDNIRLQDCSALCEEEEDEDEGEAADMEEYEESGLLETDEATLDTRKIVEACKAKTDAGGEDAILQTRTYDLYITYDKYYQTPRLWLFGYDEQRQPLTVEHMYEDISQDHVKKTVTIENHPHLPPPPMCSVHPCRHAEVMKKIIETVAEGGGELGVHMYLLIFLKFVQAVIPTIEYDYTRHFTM
T1 sequence (Q9NT62 whole entry): as above
T3 sequence (Q9NT62 193-314 limits assumed): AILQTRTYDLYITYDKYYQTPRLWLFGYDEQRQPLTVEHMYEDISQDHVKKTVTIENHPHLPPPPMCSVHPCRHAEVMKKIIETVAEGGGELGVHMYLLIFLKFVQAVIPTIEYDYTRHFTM

5′AAGAUCCUGGACCGUGUCACC3′ [Beclin1 siRNA]
endogenous Beclin1 expression [1]: significantly reduced endogenous Beclin1 expression | rapamycin-induced autophagic death ([1]; rapamycin, day 5): attenuated rapamycin-induced autophagic death

CO[C@H]1C[C@@H]2CC[C@@H](C)[C@@](O)(O2)C(=O)C(=O)N2CCCC[C@H]2C(=O)O[C@H]([C@H](C)C[C@@H]2CC[C@@H](O)[C@H](OC)C2)CC(=O)[C@H](C)/C=C(\C)[C@@H](O)[C@@H](OC)C(=O)[C@H](C)C[C@H](C)/C=C/C=C/C=C/1C [rapamycin]
dead cells with characteristics of autophagic death (EM) [2]: approximately 60%

COC(=O)CC(NC(=O)C(C)NC(=O)C(NC(=O)OCc1ccccc1)C(C)C)C(=O)CF (stereo not drawn) [zVAD, benzyloxycarbonylvalyl-alanyl-aspartic acid (O-methyl)-fluoro-methylketone] (Cbz-Val-Ala-Asp(OMe)-CH2F; configuration not given here)
growth suppression and death [3]: effectively induced growth suppression and death of BCBL1 cells

EVVLFLLNVF (also: GST fusion; UniProt F5HEZ4 20-29, looked up, fragment) [DED1 α2 helix, α2 region of KSHV vFLIP amino acids 20-29; tested as mammalian GST fusion]
Atg3 binding [4]: individually sufficient for Atg3 binding

QTFLHWVYCMEN [DED2 α4 helix]
Atg3 binding [4]: individually sufficient for Atg3 binding

RRRQRRKKRGY-G (RRRQRRKKRGYG) [HIV-1 TAT, reference compound]
autophagy induction (GFP-LC3 puncta) [5]: no increase in autophagy | cell death (in words) [6]: no increase in autophagy nor cell death

RRRQRRKKRGY-G-FVNLAAAVVE [K-α2m]
autophagy induction (GFP-LC3 puncta) [5]: no increase in autophagy | cell death (in words) [6]: no increase in autophagy nor cell death

RRRQRRKKRGY-G-FVNLLFLVVE (RRRQRRKKRGYGFVNLLFLVVE; not fully specified (some residues); also: retro-inverso D-amino acids) [K-α2, KSHV vFLIP aa20-29 as retro-inverso version fused with HIV-1 TAT transduction domain]
LC3-II level [7]: high amount of LC3-II | phosphorylation of p70S6K [8]: marginal reduction | phosphorylation of ribosomal protein S6 [8]: remained unaffected

RRRQRRKKRGY-G-NEMCAAAHAATQ [K-α4m]
autophagy induction (GFP-LC3 puncta) [5]: no increase in autophagy | cell death (in words) [6]: no increase in autophagy nor cell death

RRRQRRKKRGY-G-NEMCYVWHLFTQ (RRRQRRKKRGYGNEMCYVWHLFTQ; not fully specified (some residues); also: retro-inverso D-amino acids) [K-α4, KSHV vFLIP aa128-139 as retro-inverso version fused with HIV-1 TAT transduction domain]
LC3-II level [7]: high amount of LC3-II | phosphorylation of p70S6K [8]: marginal reduction | phosphorylation of ribosomal protein S6 [8]: remained unaffected

B1: Flag-KSHV vFLIP DED2 (other)
chain: FSPYQLTVLHVDGELCARDIRSLIFLSKDTIGSRSTPQTFLHWVYCMENLDLLGPTDVDALMSMLRSLSRVDLQRQVQTLMGLHLSGPSHSQHYRHTP
notes: also called DED2 of KSHV vFLIP
binding result [9]: binds

B2: Flag-HVS vFLIP (other)
chain: MDLKTTVLHITDSFTEEEMYCLLFLINGCIPRNCNAVKISDLIIETLSKSTQWDICLTQCLYVLRKIELLLNLFQVTKEDVKQSFFTQLQLETHVLTLVNVNNNLTAKDEKRLCFILDQFFPRNVVASSVILCVFSNMLCEMPVLECLCQLKKCLKQIGRSDLAKTV
binding result [10]: binds | binding result [9]: binds

B3: HVS vFLIP: viral FLIP of Herpesvirus saimiri (protein)
chain: MDLKTTVLHITDSFTEEEMYCLLFLINGCIPRNCNAVKISDLIIETLSKSTQWDICLTQCLYVLRKIELLLNLFQVTKEDVKQSFFTQLQLETHVLTLVNVNNNLTAKDEKRLCFILDQFFPRNVVASSVILCVFSNMLCEMPVLECLCQLKKCLKQIGRSDLAKTV
modifications: Saimiriine herpesvirus 2
notes: viral FLIP of Herpesvirus saimiri
Atg3 regions bound (Atg3 deletion mutants) [11]: Atg3 binding patterns similar to KSHV vFLIP | Atg3 binding [4]: interacted with Atg3 as efficiently as KSHV-vFLIP | processed LC3-II [12]: little or no processed LC3-II | suppression of starvation- and rapamycin-induced autophagy (GFP-LC3 puncta) [13]: strongly suppressed starvation- and rapamycin-induced autophagy; also recorded: had anti-autophagic activity

B4: Flag-KSHV vFLIP DED1 (other)
chain: MATYEVLCEVARKLGTDDREVVLFLLNVFIPQPTLAQLIGALRALKEEGRLTFPLLAECLFRAGRRDLLRDLLHLDPRFLERHLAGTMSY
notes: also called DED1 of KSHV vFLIP
binding result [9]: binds
